The numbers were not newly measured in publication PMC13575890, “Investigating substituted phenylacetamide ligands in the D4R extended binding pocket” (Bioorganic & medicinal chemistry letters, 2026), which cites them from elsewhere.

SMILES strings stand for the structures.

In one data set the target is T1, human D3R (Homo sapiens, UniProt P35462).
T1 construct: expressed in transfected cells
Set-up: method as in PMID 30883109. The note with it: membranes from HEK 293 cells stably expressing hD3R; previously reported compounds; read-out: Ki (nM) ± SEM [3H]N-methylspiperone D3R.

For another data set, the target named is T2, human D4R (Homo sapiens, UniProt P21917).
T2 construct: expressed in transfected cells
T2 sequence (P21917 1-419): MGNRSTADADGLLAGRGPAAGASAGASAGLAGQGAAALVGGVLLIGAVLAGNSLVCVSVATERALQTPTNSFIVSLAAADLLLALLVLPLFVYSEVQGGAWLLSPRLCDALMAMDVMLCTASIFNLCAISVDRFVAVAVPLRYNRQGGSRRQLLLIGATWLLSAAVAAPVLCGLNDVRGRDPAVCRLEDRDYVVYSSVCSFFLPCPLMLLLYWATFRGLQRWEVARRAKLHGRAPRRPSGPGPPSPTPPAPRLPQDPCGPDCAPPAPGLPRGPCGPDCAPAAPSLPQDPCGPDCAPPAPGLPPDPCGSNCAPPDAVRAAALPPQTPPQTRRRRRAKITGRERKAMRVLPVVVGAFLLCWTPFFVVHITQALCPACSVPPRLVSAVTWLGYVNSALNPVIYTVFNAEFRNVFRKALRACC
The arrangement: method as in PMID 30883109. The note with it: membranes from HEK 293 cells stably expressing hD4R; previously reported compounds; read-out: Ki (nM) ± SEM [3H]N-methylspiperone D4R.

T1 sequence (P35462 whole entry): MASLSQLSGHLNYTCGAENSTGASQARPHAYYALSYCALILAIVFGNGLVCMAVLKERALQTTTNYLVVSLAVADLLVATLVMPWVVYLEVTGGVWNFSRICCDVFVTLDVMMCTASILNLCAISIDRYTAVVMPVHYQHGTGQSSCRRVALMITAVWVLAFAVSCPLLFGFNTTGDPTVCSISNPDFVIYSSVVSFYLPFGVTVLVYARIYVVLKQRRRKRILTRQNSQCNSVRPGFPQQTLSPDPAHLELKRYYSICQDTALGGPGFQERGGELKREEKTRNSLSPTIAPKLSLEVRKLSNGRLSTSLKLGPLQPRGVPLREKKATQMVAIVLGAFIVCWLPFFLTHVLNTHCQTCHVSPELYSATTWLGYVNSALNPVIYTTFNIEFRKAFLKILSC

Take `Cc1cccc(NC(=O)CN2CCN(c3ccccn3)CC2)c1` [Compound 2]: the Ki at human D3R was greater than 50000 nM; on human D4R it was 75.1 ± 0.7 nM.
Turning to `CCc1cccc(NC(=O)CN2CCN(c3ccccn3)CC2)c1` [Compound 3], the Ki on human D4R was 66.6 ± 1.8 nM.
